Measured values taken from patent publication US20250280821A1, “PERFUSION AND METABOLIC RESTORATION OF ORGANS” (Bexorg, Inc., priority 2024, published 2025).

System: tissue of the dorsomedial prefrontal cortex (dmPFC) of the brain 110
Assay: Raman spectroscopy of brain tissue during ex-vivo perfusion with rapamycin in the perfusate
Format: in vitro ADME, human
Details: ex-vivo perfused brain
Description: As previously discussed, the perfusion system 100 also includes a Raman spectroscopy probe 172 that is coupled to or positioned near the brain housing 102 for performing Raman spectroscopy on the tissue of the brain 110 in real-time during perfusion of the brain 110. Once the brain 110 is fluidly coupled to the organ line 144 and is positioned inside the brain housing 102, the Raman spectroscopy probe 172 is positioned on the surface of the brain 110 and can be operated periodically throughout the perfusion process to perform Raman spectroscopy on the tissue of the brain 110 in real-time as the brain is perfused. […]
The data generated by the Raman spectroscopy probe 172 can be used to determine whether the pharmaceutical compound is capable of crossing the blood-brain barrier. The pharmaceutical compound can be determined as capable of crossing the blood-brain barrier in response to detecting that one or more chemical compounds corresponding to the pharmaceutical compound are present in the tissue of the brain 110 using the Raman spectroscopy probe 172. In addition, the percentage of the pharmaceutical compound taken up and metabolized by the brain 110 can be determined based on the concentration of one or more chemical compounds corresponding to the pharmaceutical compound that is detected in the tissue of the brain 110 by the Raman spectroscopy probe 172. […]

CO[C@H]1C[C@@H]2CC[C@@H](C)[C@@](O)(O2)C(=O)C(=O)N2CCCC[C@H]2C(=O)O[C@H]([C@H](C)C[C@@H]2CC[C@@H](O)[C@H](OC)C2)CC(=O)[C@H](C)/C=C(\C)[C@@H](O)[C@@H](OC)C(=O)[C@H](C)C[C@H](C)/C=C/C=C/C=C/1C [rapamycin]
concentration of rapamycin present in the brain (Raman spectroscopy of dmPFC tissue over time (FIG. 6)): continually increased until a stable concentration 604 was reached | ability to cross the blood-brain barrier of the brain (rapamycin added to perfusate by syringe pump, Raman spectroscopy of dmPFC tissue (FIG. 6)): able to cross the blood-brain barrier
